Results: patent US6835382B2, “Ii peptide therapeutics to enhance antigen presentation” (University of Massachusetts, priority 1996, dated 2004)
Positions of bridges follow the written chain, without caps; N, C: chain ends. Non-standard residues stand in square brackets, D forms with d. No end group written: not given here. hArg = N=C(N)NCCCC[C@H](N)C(=O)O; Cit = NC(=O)NCCC[C@H](N)C(=O)O

Each substance was assayed against T1, murine E^d MHC class II allele (Mus musculus, UniProt P01904+P01915) (assay: antigenic peptide prepulse assay, E^d allele (fixed APC prepulsed with HEL106-116)). Conditions: Table 25; AE peptide 64 μM; prepulse 24 μM antigenic peptide; supernatant 1:4.
T1 sequence (P01904 26-255): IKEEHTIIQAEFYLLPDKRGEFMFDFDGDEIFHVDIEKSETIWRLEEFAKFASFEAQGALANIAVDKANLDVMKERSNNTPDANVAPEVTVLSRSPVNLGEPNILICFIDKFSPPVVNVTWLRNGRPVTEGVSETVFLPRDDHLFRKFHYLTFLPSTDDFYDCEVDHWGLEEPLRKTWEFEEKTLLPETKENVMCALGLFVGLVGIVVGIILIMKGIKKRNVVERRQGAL
T1 sequence (P01915 27-264 limits assumed): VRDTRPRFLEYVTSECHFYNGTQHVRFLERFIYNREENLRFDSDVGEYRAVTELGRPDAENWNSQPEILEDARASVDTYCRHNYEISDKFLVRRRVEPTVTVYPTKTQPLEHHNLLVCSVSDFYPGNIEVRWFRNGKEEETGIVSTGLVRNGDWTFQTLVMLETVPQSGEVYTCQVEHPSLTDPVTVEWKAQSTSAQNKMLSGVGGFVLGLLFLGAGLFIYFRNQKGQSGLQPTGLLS
Assay type: cell-based
Parameters: The A20 and CH27 B cell lymphoma lines express H-2^d and H-2^k alleles, respectively; endogenous in cells; host or cells: A20 B cell lymphoma (mitomycin C-treated or paraformaldehyde-fixed)
Method: In a second type of assay, the “peptide prepulse assay”, the antigenic peptide is incubated with paraformaldehyde-fixed APC for 6 h. The APC are washed and incubated for 24 h with the AE101 series homolog and the T cell hybridoma specific for the antigenic peptide. After that incubation, an aliquot of the culture supernatant is transferred to a second culture to measure the relative degree of T hybridoma stimulation, as reflected in the effect of released interleukins on the growth of an interleukin-dependent, indicator cell line, as described above.
The two above described assays measure different aspects of the molecular mechanism of the AE101 series of peptides. In the “simultaneous assay”, AE101 series peptides are thought to induce the release of endogenously bound peptides and to permit the binding of the second, specific antigenic peptide which is relatively abundant in the culture fluid. The AE101 series peptides enhance antigenic peptide-specific T cell responses in simultaneous assays. In the “peptide prepulse” assay, the specific antigenic peptide becomes bound to MHC class II molecules on the surface of the fixed APC during the 6 h prepulse incubation. The effect of the AE101 series homologs is then thought to release that antigenic peptide, resulting in an apparent suppression of the immune response.
The AE101 series peptides are thought to contact the MHC class II molecules at a discrete site outside the antigenic peptide-binding groove. AE101 peptide binding to this “Ii-KEY” site is thought to induce a conformational change in the MHC class II molecules accelerating the dissociation of previously bound antigenic peptide. […] The AE101 series peptides thus inhibit antigenic peptide-specific T cell responses in the “peptide prepulse” assays.
Antigenic peptide-specific T cell activation was measured by the following procedure. Mitomycin C-treated A20 cells (A^dE^d) or CH27 cells APC (A^kE^k) were generated by incubating 5×10^6 cells/mL for 20 min at 37° C. with 0.025 mg/mL of mitomycin C (Sigma) in Dulbecco's Modified Eaglel's Medium (DMEM)/10 mM N-2(hydroxyethylpiperazine-N″[2-ethanesulfonic acid] (HEPES), followed by two washes with four volumes of DMEM-5% fetal calf serum (FCS), 10 mM HEPES. Fixed APC were generated by treating 1×10^6 cells/mL for 5 min with 0.5% paraformaldehyde in PBS (pH 7.2), followed by two washes with four volumes of DMEM-10% FCS, 10 mM HEPES. T cell hybridomas were irradiated 2200 rads before each assay.
The “peptide prepulse assay” was carried out under essentially the same conditions as described for the “simultaneous assay” with the following modifications. Fixed APC were first incubated for 6 h at 1×10^6 cells/mL in complete DMEM-5% FCS in 24-well microculture plates (1 mL/well) with antigenic peptide, followed by four washes with 10 volumes of DMEM-5% FCS. The cells were then exposed to varying concentrations of AE101 series peptide (64 μM, 16 μM, 4 μM, and 1 μM) for 24 h in the presence of the T cell hybridoma specific to the antigenic peptide. Interleukin release from these cultures was measured by proliferation of HT-2 cells to interleukins in supernatants transferred from the primary culture. Generally, a single dose of 64 μM of each AE101 series peptide was used. The baseline T cell response was measured by culturing T hybridoma cells with the antigenic peptide-prepulsed APC in the absence of AE101 series peptides.
[…] […] Paraformaldehyde-treated APC (fixed APC) expressing MHC class II molecules were incubated with antigenic peptide for 6 h (HEL106-116 for E^d and PGCC81-104 for E^k). After this incubation, the prepulsed APC were washed and cultured with T hybridoma cells and AE101 series peptides. […] The AE101 series peptide concentrations were 64 μM for E^d and 16 μM for E^k. The dilutions of supernatant taken into the HT-2 cell assay were 1:4 for Ed and 1:2 for E^k.

Substance	Activity in antigenic peptide prepulse assay, E^d (baseline = 1.00)
Ac-A[Cit]NKNPK-NH2 [AE351]	0.42
Ac-LR Orn K HArg PK-NH2 [AE340]	0.10
Ac-LRMKNPF-NH2 [AE350]	0.82

Same assay, conditions: Table 26; AE peptide 64 μM; prepulse 24 μM antigenic peptide; supernatant 1:2

Substance	Activity in antigenic peptide prepulse assay, E^d (baseline = 1.0)
Ac-FK HArg MYP Cit-NH2 [AE371]	0.90
Ac-LK HArg KYPK-NH2 [AE363]	0.60
Ac-LKMKYPK-NH2 [AE362]	0.76
Ac-LR HArg KYP Cit-NH2 [AE366]	0.44
Ac-LR HArg MYPK-NH2 [AE365]	0.70
Ac-LRLKYPN-NH2 [AE368]	0.55
Ac-LRMKYPN-NH2 [AE370]	0.74
Ac-LRMKYP[Cit]-NH2 [AE364]	0.34
Ac-LRMMYP[Cit]-NH2 [AE367]	1.10
Ac-L[hArg]LKYPK-NH2 [AE361]	0.83
Ac-L[hArg]MKYPK-NH2 [AE360]	0.91

Same assay, conditions: Table 28; AE peptide 64 μM; prepulse 24 μM antigenic peptide; supernatant 1:4

Substance	Activity in antigenic peptide prepulse assay, E^d (baseline = 1.0)
Ac-LRMKLPK (lactam 4-C) [AE382]	0.52
cyclic LRMKLPK (bridge (positions not given here); also: cyclic, ring type not given here) [AE381, “head-to-tail” cyclization from the amino-terminus to the carboxyl-terminus of AE114]	0.19
